# Laboratory results taken from PMC11912475 (Journal of Medicinal Chemistry, 2025).
# Read-outs that look alike come from different tables or passages of the source.
# Columns and labels:
# Assay type in all cases: cell-based
# [1] = biological target: GluN1-GluN2C NMDAR subtype (Homo sapiens, UniProt Q05586+Q14957); test: FLIPR/Ca2+ assay, NMDAR GluN1-GluN2C subtype in CHO cells
# Protocol: (§1) These compounds were assessed for their effects on specific heterodimeric NMDAR subtypes stably overexpressed in Chinese Hamster Ovary (CHO) cells. The subtypes tested included GluN1-GluN2A, GluN1-GluN2B, GluN1-GluN2C, and GluN1-GluN2D. CHO cells expressing each of the four NMDAR subtypes were incubated with 10 μM L-glutamate, a concentration known to elicit maximal Ca^2+ influx, serving as the stimulus. Intracellular Ca^2+ levels were subsequently measured to determine the extent of NMDAR activation.
# (§2) Assay buffer composition was 145 mM NaCl, 5 mM KCl, 2 mM CaCl2, 1 g/Liter D-(+)-glucose, and 20 mM HEPES (pH 7.3 adjusted with NaOH). Cells were plated at a density of 15.000/well in 384 black/clear bottom plates. […] Cells were kept at 30 °C in 5% CO2 incubator for 24 h. Cells were preloaded for 1 h with 2 μM Fluo-4 Ca^2+-sensitive probe, simultaneously with 2.5 mM probenecid, an inhibitor of nonspecific anion transport, and 500 μM ketamine to avoid cytotoxicity. […] Intracellular Ca^2+ level was monitored by FLIPR (excitation wavelength at 470–495 nm, emission wavelength at 515–575 nm) for 10 s before and 5 min after the addition of test items. All test items, including L-glutamate and glycine, were added simultaneously. […] FLIPR data were normalized as 100%, in the presence of 10 μM L-glutamate and 10 μM glycine, while as 0%, in the presence of assay buffer. […] Then, data were normalized by Excel 2013 (Microsoft Office) software, using wells added with 10 μM L-glutamate plus 10 μM glycine (column 23) as high control, and wells added with assay buffer only (column 24) as low control. To assess plate quality, Z′ calculations were performed in Excel. Z′ was calculated according to following equation: Z′ = 1–3(σh + σl)/|μh – μL| where μ and σ are the means and the standard deviations of the means of high (h) and low (l) controls, respectively. Compound concentration–response curves were plotted by Prism 8 GraphPad software, in the different experimental conditions (see Supporting Information). Data were analyzed using least-squares regression fitting, to fit data to a standard four parameters logistic equation using GraphPad Prism10. This regression fitting allowed the calculation of pIC50 and the corresponding SEM.
# [2] = biological target: GluN1-GluN2D NMDAR subtype (Homo sapiens, UniProt O15399+Q05586); test: FLIPR/Ca2+ assay, NMDAR GluN1-GluN2D subtype in CHO cells
# Protocol: as §1, §2
# [3] = biological target: GluN1-GluN2A NMDAR subtype (Homo sapiens, UniProt Q05586+Q12879); test: FLIPR/Ca2+ assay, NMDAR GluN1-GluN2A subtype in CHO cells
# Sequence of GluN1-GluN2A NMDAR subtype (Q12879 23-1464, other chains not shown): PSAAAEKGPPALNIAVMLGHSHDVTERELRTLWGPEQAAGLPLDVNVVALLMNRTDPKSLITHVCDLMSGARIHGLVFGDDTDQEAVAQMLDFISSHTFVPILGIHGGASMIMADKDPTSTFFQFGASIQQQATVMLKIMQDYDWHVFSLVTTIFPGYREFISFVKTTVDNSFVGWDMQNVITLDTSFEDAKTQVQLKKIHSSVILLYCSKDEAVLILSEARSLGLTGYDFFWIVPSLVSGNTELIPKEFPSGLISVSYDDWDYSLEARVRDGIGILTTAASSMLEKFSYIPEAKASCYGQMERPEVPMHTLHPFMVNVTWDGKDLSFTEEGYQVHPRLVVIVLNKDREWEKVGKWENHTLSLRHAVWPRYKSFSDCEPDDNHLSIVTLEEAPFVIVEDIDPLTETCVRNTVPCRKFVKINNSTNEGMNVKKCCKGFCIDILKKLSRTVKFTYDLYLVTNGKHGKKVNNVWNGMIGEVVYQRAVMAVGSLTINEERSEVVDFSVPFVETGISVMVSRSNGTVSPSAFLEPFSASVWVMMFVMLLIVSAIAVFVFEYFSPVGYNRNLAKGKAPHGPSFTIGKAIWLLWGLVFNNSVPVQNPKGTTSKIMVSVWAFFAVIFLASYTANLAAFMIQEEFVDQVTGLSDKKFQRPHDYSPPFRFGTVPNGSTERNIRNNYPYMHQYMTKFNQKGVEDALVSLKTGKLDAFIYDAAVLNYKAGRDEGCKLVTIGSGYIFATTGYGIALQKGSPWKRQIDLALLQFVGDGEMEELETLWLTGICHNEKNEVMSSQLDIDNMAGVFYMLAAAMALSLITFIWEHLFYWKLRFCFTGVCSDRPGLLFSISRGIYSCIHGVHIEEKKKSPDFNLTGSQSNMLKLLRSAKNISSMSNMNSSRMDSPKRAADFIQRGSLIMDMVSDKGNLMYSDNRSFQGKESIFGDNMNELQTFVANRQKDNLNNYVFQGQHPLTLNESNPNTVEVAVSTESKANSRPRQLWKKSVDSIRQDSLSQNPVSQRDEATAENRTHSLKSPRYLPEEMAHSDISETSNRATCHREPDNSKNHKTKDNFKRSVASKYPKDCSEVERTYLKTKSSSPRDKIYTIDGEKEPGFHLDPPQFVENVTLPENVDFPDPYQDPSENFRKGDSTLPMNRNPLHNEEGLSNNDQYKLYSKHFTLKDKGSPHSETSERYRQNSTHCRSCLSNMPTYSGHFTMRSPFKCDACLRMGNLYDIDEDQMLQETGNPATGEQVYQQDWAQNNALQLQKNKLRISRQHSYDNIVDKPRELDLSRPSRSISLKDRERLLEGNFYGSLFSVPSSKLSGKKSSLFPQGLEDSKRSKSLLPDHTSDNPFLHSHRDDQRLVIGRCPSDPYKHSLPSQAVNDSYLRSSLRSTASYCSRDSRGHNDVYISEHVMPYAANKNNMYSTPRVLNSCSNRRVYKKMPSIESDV
# Protocol: as §1, §2
# [4] = biological target: T1, GluN1-GluN2B NMDAR subtype (Homo sapiens, UniProt Q05586+Q13224); test: FLIPR/Ca2+ assay, NMDAR GluN1-GluN2B subtype in CHO cells
# T1 construct: host or cells: NR1-2B-CHO cells, constitutive expression
# T1 sequence (Q13224 27-1484, other chains not shown): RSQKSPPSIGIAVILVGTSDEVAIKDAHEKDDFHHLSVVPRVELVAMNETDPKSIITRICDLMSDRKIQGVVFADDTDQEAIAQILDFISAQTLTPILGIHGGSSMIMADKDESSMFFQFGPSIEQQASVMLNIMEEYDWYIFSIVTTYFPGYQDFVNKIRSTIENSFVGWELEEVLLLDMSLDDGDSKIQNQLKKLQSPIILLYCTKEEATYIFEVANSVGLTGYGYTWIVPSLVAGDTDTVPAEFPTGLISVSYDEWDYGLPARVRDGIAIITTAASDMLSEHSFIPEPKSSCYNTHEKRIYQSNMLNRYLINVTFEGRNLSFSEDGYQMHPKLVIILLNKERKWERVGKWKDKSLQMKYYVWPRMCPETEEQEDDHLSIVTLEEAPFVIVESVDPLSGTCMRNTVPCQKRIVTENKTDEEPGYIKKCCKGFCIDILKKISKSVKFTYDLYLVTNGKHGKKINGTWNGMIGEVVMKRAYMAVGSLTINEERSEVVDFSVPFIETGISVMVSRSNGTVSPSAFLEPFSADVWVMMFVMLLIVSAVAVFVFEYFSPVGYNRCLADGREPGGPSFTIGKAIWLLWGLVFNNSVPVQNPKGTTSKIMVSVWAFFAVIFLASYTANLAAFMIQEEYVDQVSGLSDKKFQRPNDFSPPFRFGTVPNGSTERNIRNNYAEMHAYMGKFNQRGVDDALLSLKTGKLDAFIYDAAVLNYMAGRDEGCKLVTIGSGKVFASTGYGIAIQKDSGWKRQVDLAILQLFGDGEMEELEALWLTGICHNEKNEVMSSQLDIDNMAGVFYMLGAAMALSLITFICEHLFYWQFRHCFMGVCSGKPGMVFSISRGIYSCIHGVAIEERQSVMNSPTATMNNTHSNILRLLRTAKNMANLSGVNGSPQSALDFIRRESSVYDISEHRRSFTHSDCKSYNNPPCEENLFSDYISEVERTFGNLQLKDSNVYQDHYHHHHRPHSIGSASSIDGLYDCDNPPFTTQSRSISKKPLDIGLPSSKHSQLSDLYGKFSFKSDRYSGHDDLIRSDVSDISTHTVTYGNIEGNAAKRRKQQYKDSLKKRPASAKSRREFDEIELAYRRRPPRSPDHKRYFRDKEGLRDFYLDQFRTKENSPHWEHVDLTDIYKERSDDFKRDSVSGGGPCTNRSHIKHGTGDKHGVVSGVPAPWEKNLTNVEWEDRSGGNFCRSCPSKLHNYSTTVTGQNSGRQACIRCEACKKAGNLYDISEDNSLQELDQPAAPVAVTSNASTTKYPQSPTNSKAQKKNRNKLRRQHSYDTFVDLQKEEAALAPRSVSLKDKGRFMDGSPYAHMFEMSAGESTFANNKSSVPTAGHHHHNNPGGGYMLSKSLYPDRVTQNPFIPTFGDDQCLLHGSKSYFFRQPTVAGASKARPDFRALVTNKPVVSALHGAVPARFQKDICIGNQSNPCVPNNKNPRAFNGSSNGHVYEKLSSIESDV
# Protocol: as §1, §2
# [5] = CHO cells, 10 μM L-glutamate and 10 μM glycine, n.d. = 50% of inhibition could not be reached at the highest concentration used
# [6] = CHO cells, 10 μM L-glutamate and 10 μM glycine, n.d. = 50% of inhibition could not be reached at the highest concentration used, read-out: pIC50 (mean ± SEM) GluN1-GluN2B (converted)
# [7] = CHO cells, 10 μM L-glutamate and 10 μM glycine, n.d. = 50% of inhibition could not be reached at the highest concentration used, read-out: pIC50 (mean ± SEM) GluN1-GluN2C (converted)
# [8] = CHO cells, 10 μM L-glutamate and 10 μM glycine, n.d. = 50% of inhibition could not be reached at the highest concentration used, read-out: pIC50 (mean ± SEM) GluN1-GluN2D (converted)
# Sequence of GluN1-GluN2C NMDAR subtype (Q14957 20-1233, other chains not shown): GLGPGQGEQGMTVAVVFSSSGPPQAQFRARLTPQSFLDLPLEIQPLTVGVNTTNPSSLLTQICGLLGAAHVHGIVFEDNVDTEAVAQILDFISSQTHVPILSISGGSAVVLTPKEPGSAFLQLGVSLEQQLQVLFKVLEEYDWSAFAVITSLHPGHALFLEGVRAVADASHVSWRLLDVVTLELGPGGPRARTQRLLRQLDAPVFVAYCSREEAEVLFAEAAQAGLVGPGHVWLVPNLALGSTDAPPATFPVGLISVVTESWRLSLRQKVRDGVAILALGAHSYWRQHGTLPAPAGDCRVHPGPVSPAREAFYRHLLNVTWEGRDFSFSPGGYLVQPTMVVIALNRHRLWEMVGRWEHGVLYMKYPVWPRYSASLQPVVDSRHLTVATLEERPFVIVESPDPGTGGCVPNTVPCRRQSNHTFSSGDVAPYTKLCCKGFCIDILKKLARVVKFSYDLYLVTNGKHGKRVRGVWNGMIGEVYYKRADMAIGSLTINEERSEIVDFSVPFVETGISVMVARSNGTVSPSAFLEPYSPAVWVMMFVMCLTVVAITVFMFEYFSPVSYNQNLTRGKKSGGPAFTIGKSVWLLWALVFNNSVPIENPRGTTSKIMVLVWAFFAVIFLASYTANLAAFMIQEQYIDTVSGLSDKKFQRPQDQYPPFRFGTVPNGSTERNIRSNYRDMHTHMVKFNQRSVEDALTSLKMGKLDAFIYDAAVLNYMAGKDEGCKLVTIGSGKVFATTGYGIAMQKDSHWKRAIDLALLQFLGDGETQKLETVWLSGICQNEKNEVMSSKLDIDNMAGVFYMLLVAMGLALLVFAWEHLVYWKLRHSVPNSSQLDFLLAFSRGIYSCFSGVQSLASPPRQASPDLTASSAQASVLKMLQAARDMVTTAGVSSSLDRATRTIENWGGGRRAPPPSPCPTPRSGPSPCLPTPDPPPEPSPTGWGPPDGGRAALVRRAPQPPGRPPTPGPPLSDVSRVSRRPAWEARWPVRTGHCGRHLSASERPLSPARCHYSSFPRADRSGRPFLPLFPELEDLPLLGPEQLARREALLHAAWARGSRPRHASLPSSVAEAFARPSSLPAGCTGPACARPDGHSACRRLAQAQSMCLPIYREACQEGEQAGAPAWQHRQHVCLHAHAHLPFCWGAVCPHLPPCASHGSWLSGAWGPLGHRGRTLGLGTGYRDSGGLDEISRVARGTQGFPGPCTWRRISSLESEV
SMILES,"pIC50 (mean ± SEM) GluN1-GluN2C [1, 5]","pIC50 (mean ± SEM) GluN1-GluN2D [2, 5]","pIC50 (mean ± SEM) GluN1-GluN2A [3, 5]","IC50 [4, 6]","IC50 [1, 7]","IC50 [2, 8]",further results
"CC[C@H](O)C(C[C@@H](C)N(C)C)(c1ccccc1)c1ccccc1 [(3S,6R)-ML, (3S,6R)-6-(dimethylamino)-4,4-diphenylheptan-3-ol]",4.2 ± 0.074,4.2 ± 0.23,4.5 ± 0.18,–,–,–,–
"C[C@H]1CC(c2ccccc2)(c2ccccc2)C(=O)N1C [(S)-DDPO, 1,5-Dimethyl-3,3-diphenylpyrrolidin-2-one]",–,–,–,> 100 µM,> 100 µM,> 100 µM,"IC50 ([3]; CHO cells, 10 μM L-glutamate and 10 μM glycine, n.d. = 50% of inhibition could not be reached at the highest concentration used, read-out: pIC50 (mean ± SEM) GluN1-GluN2A (converted)): > 100 µM"
"CCC1=N[C@@H](C)CC1(c1ccccc1)c1ccccc1 [(S)-EMDP, 5-Ethyl-2-methyl-4,4-diphenyl-3,4-dihydro-2H-pyrrole]",–,–,–,> 100 µM,> 100 µM,> 100 µM,–
"CCC1=[N+](C)[C@@H](C)CC1(c1ccccc1)c1ccccc1 [(S)-EDDP, 2-Ethyl-1,5-dimethyl-3,3-diphenyl-3,4-dihydro-5H-pyrrolium chloride]",–,–,–,–,–,–,IC50 [4]: > 100 µM; IC50 [1]: > 100 µM; IC50 [2]: > 100 µM; IC50 [3]: > 100 µM
"COc1ccc2c(c1)[C@]13CCCC[C@@H]1[C@H](C2)N(C)CC3 [dextromethorphan, reference compound]",5.2 ± 0.057,4.6 ± 0.12,4.3 ± 0.029,–,–,–,"pIC50 (mean ± SEM) GluN1-GluN2B [4, 5]: 4.8 ± 0.037"
